From publication PMC5218480 (PLoS ONE, 2017)

Tested on: MV-4-11 cells
Experiment: Gene expression microarray analysis (Affymetrix PrimeView) and GSEA
Type: cell-based, human
Design: RFU PODN (11730768_x_at) / Fold change /veh PODN (11730768_x_at) / RFU LINC00158 (11744669_a_at) / Fold change /veh LINC00158 (11744669_a_at) / RFU DUSP10 (11751237_a_at) / Fold change /veh DUSP10 (11751237_a_at) / RFU ID3 (11757404_x_at) / Fold change /veh ID3 (11757404_x_at) / RFU PLEKHG5 (11737974_s_at) / Fold change /veh PLEKHG5 (11737974_s_at) / RFU LRRC4B (11730491_at) / Fold change /veh LRRC4B (11730491_at) / RFU GIMAP4 (11747438_a_at) / Fold change /veh GIMAP4 (11747438_a_at) / RFU KRT8 (11758183_x_at) / Fold change /veh KRT8 (11758183_x_at) / RFU CNN1 (11734310_a_at) / Fold change /veh CNN1 (11734310_a_at) / RFU VPS37D (11726825_at) / Fold change /veh VPS37D (11726825_at) / RFU C10orf10 (11716522_x_at) / Fold change /veh C10orf10 (11716522_x_at) / RFU KIR2DL2 /// KIR2DL4 /// KIR2DL5A /// KIR2DL5B /// KIR2DS1 /// KIR2DS2 /// KIR2DS3 /// KIR2DS4 /// KIR3DL3 /// KIR3DL3 /// KIR3DS1 (11738374_at) / Fold change /veh KIR2DL2 /// KIR2DL4 /// KIR2DL5A /// KIR2DL5B /// KIR2DS1 /// KIR2DS2 /// KIR2DS3 /// KIR2DS4 /// KIR3DL3 /// KIR3DL3 /// KIR3DS1 (11738374_at) / RFU C1QL1 (11718748_at) / Fold change /veh C1QL1 (11718748_at) / RFU TMPRSS4 (11747572_a_at) / Fold change /veh TMPRSS4 (11747572_a_at) / RFU HAMP (11756126_x_at) / Fold change /veh HAMP (11756126_x_at) / RFU RNFT2 (11725882_a_at) / Fold change /veh RNFT2 (11725882_a_at) / RFU NR4A2 (11747474_a_at) / Fold change /veh NR4A2 (11747474_a_at) / RFU ABCC12 (11746883_a_at) / Fold change /veh ABCC12 (11746883_a_at) / RFU TMEM136 (11760407_x_at) / Fold change /veh TMEM136 (11760407_x_at) / RFU CLDN22 /// WWC2 (11732394_at) / Fold change /veh CLDN22 /// WWC2 (11732394_at) / RFU HLA-DPB1 (11760878_x_at) / Fold change /veh HLA-DPB1 (11760878_x_at) / RFU SPINT1 (11716480_a_at) / Fold change /veh SPINT1 (11716480_a_at) / RFU GAP43 (11754022_s_at) / Fold change /veh GAP43 (11754022_s_at) / RFU A4GNT (11735810_at) / Fold change /veh A4GNT (11735810_at) / RFU PRB3 (11715151_x_at) / Fold change /veh PRB3 (11715151_x_at) / RFU TUBB4B (11761932_at) / Fold change /veh TUBB4B (11761932_at) / RFU CAPN14 (11732068_a_at) / Fold change /veh CAPN14 (11732068_a_at) / RFU TMCC2 (11721928_a_at) / Fold change /veh TMCC2 (11721928_a_at) / RFU IRGQ (11745062_a_at) / Fold change /veh IRGQ (11745062_a_at) / RFU FAM174B (11720279_a_at) / Fold change /veh FAM174B (11720279_a_at) / RFU TMPRSS4 (11748680_a_at) / Fold change /veh TMPRSS4 (11748680_a_at) / RFU FAM212B (11763350_a_at) / Fold change /veh FAM212B (11763350_a_at) / RFU PLEKHG5 (11743358_a_at) / Fold change /veh PLEKHG5 (11743358_a_at) / RFU ZSCAN30 (11745921_a_at) / Fold change /veh ZSCAN30 (11745921_a_at) / RFU CMKLR1 (11741424_a_at) / Fold change /veh CMKLR1 (11741424_a_at) / RFU LOC101060620 /// MAPK8IP1 (11723275_at) / Fold change /veh LOC101060620 /// MAPK8IP1 (11723275_at) / RFU SPTSSB (11747773_x_at) / Fold change /veh SPTSSB (11747773_x_at) / RFU PRSS12 (11739890_at) / Fold change /veh PRSS12 (11739890_at) / RFU BIN1 (11741810_x_at) / Fold change /veh BIN1 (11741810_x_at) / RFU WNT11 (11732464_a_at) / Fold change /veh WNT11 (11732464_a_at) / RFU C10orf10 (11716521_a_at) / Fold change /veh C10orf10 (11716521_a_at) / RFU C5orf56 (11738089_at) / Fold change /veh C5orf56 (11738089_at) / RFU CYB561 (11721691_x_at) / Fold change /veh CYB561 (11721691_x_at) / RFU ANKRD19P (11752326_a_at) / Fold change /veh ANKRD19P (11752326_a_at) / RFU OR2T12 /// OR2T33 /// OR2T8 (11738714_s_at) / Fold change /veh OR2T12 /// OR2T33 /// OR2T8 (11738714_s_at) / RFU VCAN (11748164_a_at) / Fold change /veh VCAN (11748164_a_at) / RFU JSRP1 (11732532_at) / Fold change /veh JSRP1 (11732532_at) / RFU KRTAP10-11 (11738290_x_at) / Fold change /veh KRTAP10-11 (11738290_x_at) / RFU MYO3A (11730013_a_at) / Fold change /veh MYO3A (11730013_a_at) / RFU EBF3 (11725865_a_at) / Fold change /veh EBF3 (11725865_a_at) / RFU CAMK2N1 (11719241_x_at) / Fold change /veh CAMK2N1 (11719241_x_at) / RFU C5orf56 (11738088_a_at) / Fold change /veh C5orf56 (11738088_a_at) / RFU OLFML3 (11715873_a_at) / Fold change /veh OLFML3 (11715873_a_at) / RFU LOC100653217 /// NTM (11731650_a_at) / Fold change /veh LOC100653217 /// NTM (11731650_a_at) / RFU MAPK11 (11762145_a_at) / Fold change /veh MAPK11 (11762145_a_at) / RFU FIZ1 (11724087_x_at) / Fold change /veh FIZ1 (11724087_x_at) / RFU OASL (11726364_x_at) / Fold change /veh OASL (11726364_x_at) / RFU SOX15 (11748057_x_at) / Fold change /veh SOX15 (11748057_x_at) / RFU CD79A (11719716_a_at) / Fold change /veh CD79A (11719716_a_at) / RFU HIST1H1D (11736915_at) / Fold change /veh HIST1H1D (11736915_at) / RFU CASKIN2 (11723855_a_at) / Fold change /veh CASKIN2 (11723855_a_at) / RFU LOC730098 (11760151_x_at) / Fold change /veh LOC730098 (11760151_x_at) / RFU OR4N2 (11742367_at) / Fold change /veh OR4N2 (11742367_at) / RFU PRRT2 (11749266_a_at) / Fold change /veh PRRT2 (11749266_a_at) / RFU SNX32 (11753110_a_at) / Fold change /veh SNX32 (11753110_a_at) / RFU CDHR5 (11726645_a_at) / Fold change /veh CDHR5 (11726645_a_at) / RFU RCAN1 (11760418_a_at) / Fold change /veh RCAN1 (11760418_a_at) / RFU FAM167A (11723789_a_at) / Fold change /veh FAM167A (11723789_a_at) / RFU FAM26E (11764081_at) / Fold change /veh FAM26E (11764081_at) / RFU ISYNA1 (11749810_s_at) / Fold change /veh ISYNA1 (11749810_s_at) / RFU ACY1 (11761880_at) / Fold change /veh ACY1 (11761880_at) / RFU 11764098_at / Fold change /veh 11764098_at / RFU SAMD14 (11745864_x_at) / Fold change /veh SAMD14 (11745864_x_at) / RFU NPB (11741838_a_at) / Fold change /veh NPB (11741838_a_at) / RFU TMPRSS6 (11731388_a_at) / Fold change /veh TMPRSS6 (11731388_a_at) / RFU KRTAP10-2 (11738614_at) / Fold change /veh KRTAP10-2 (11738614_at) / RFU ARHGAP8 /// PRR5-ARHGAP8 (11727945_x_at) / Fold change /veh ARHGAP8 /// PRR5-ARHGAP8 (11727945_x_at) / RFU KRTAP5-7 /// NADSYN1 (11734609_at) / Fold change /veh KRTAP5-7 /// NADSYN1 (11734609_at) / RFU RASL12 (11751679_a_at) / Fold change /veh RASL12 (11751679_a_at) / RFU CDKN2B (11736163_a_at) / Fold change /veh CDKN2B (11736163_a_at) / RFU PRF1 (11729649_at) / Fold change /veh PRF1 (11729649_at) / RFU, ZNF638 /// ZNF638-IT1 / Fold change vs veh, ZNF638 /// ZNF638-IT1 / RFU, PANK3 / Fold change vs veh, PANK3 / RFU, SH3YL1 / Fold change vs veh, SH3YL1 / RFU, ZEB2 / Fold change vs veh, ZEB2 / RFU, NRIP1 / Fold change vs veh, NRIP1 / RFU, PTTG1IP / Fold change vs veh, PTTG1IP / RFU, CAPN2 / Fold change vs veh, CAPN2 / RFU, MED14 / Fold change vs veh, MED14 / RFU, SNORA58 / Fold change vs veh, SNORA58 / RFU, C1orf63 / Fold change vs veh, C1orf63 / RFU, LRRFIP1 / Fold change vs veh, LRRFIP1 / RFU, NDUFAF7 / Fold change vs veh, NDUFAF7 / RFU, SLC12A2 / Fold change vs veh, SLC12A2 / RFU, IBTK / Fold change vs veh, IBTK / RFU, ESF1 / Fold change vs veh, ESF1 / Fold change vs veh, TMEM50B / RFU, TAOK1 / Fold change vs veh, TAOK1 / RFU, ACBD3 / Fold change vs veh, ACBD3 / RFU, TMA16 / Fold change vs veh, TMA16 / RFU, RWDD3 / Fold change vs veh, RWDD3 / RFU, BCAT1 / Fold change vs veh, BCAT1 / RFU, EDEM3 / Fold change vs veh, EDEM3 / RFU, TMEM33 / Fold change vs veh, TMEM33 / RFU, WDR75 / Fold change vs veh, WDR75 / RFU, AHCTF1 / Fold change vs veh, AHCTF1 / RFU, TFRC / Fold change vs veh, TFRC / RFU, ZDHHC17 / Fold change vs veh, ZDHHC17 / RFU, NOM1 / Fold change vs veh, NOM1 / RFU, ARL8B / Fold change vs veh, ARL8B / RFU, ZBTB11 / Fold change vs veh, ZBTB11 / RFU, TAMM41 / Fold change vs veh, TAMM41 / RFU, KIAA1704 /// LOC100996395 / Fold change vs veh, KIAA1704 /// LOC100996395 / RFU, ING1 / Fold change vs veh, ING1 / RFU, TRMT61B / Fold change vs veh, TRMT61B / RFU, FUBP3 / Fold change vs veh, FUBP3 / RFU, TP53 / Fold change vs veh, TP53 / RFU, TNKS2 / Fold change vs veh, TNKS2 / RFU, ZFP14 / Fold change vs veh, ZFP14 / RFU, ACTR2 / Fold change vs veh, ACTR2 / RFU, PPP3R1 / Fold change vs veh, PPP3R1 / RFU, PIK3R1 / Fold change vs veh, PIK3R1 / RFU, HNRNPA1 / Fold change vs veh, HNRNPA1 / RFU, RNF170 / Fold change vs veh, RNF170 / RFU, ZNF28 / Fold change vs veh, ZNF28 / RFU, RNGTT / Fold change vs veh, RNGTT / RFU, OGT / Fold change vs veh, OGT / RFU, BRD1 / Fold change vs veh, BRD1 / RFU, MARS / Fold change vs veh, MARS / RFU, ZNF655 / Fold change vs veh, ZNF655 / RFU, FAHD1 / Fold change vs veh, FAHD1 / RFU, BDP1 / Fold change vs veh, BDP1 / RFU, LRRCC1 / Fold change vs veh, LRRCC1 / RFU, ARID1A / Fold change vs veh, ARID1A / RFU, ZNF146 / Fold change vs veh, ZNF146 / RFU, ZNF330 / Fold change vs veh, ZNF330 / RFU, GPN3 / Fold change vs veh, GPN3 / RFU, C9orf123 / Fold change vs veh, C9orf123 / RFU, N4BP2L2 / Fold change vs veh, N4BP2L2 / RFU, ARFIP1 / Fold change vs veh, ARFIP1 / RFU, FAM179B / Fold change vs veh, FAM179B / RFU, BCL10 / Fold change vs veh, BCL10 / RFU, UHRF1BP1L / Fold change vs veh, UHRF1BP1L / RFU, BET1 / Fold change vs veh, BET1 / RFU, CNOT2 / Fold change vs veh, CNOT2 / RFU, ZNF268 / Fold change vs veh, ZNF268 / Fold change vs veh, ZNF507 / RFU, DGCR2 / Fold change vs veh, DGCR2 / RFU, WDSUB1 / Fold change vs veh, WDSUB1 / Fold change vs veh, HSP90B1 /// MIR3652 / RFU, ADSS / Fold change vs veh, ADSS / RFU, GK / Fold change vs veh, GK / RFU, ZNF148 / Fold change vs veh, ZNF148 / RFU, TAF9 / Fold change vs veh, TAF9 / RFU, SLC1A5 / Fold change vs veh, SLC1A5 / RFU, SLMO2 / Fold change vs veh, SLMO2 / RFU, ABCC4 / Fold change vs veh, ABCC4 / RFU, LOC101060439 /// RAP1B / Fold change vs veh, LOC101060439 /// RAP1B / RFU, RFX7 / Fold change vs veh, RFX7 / RFU, GTPBP10 / Fold change vs veh, GTPBP10 / RFU, CNEP1R1 / Fold change vs veh, CNEP1R1 / RFU, BIVM-ERCC5 /// ERCC5 / Fold change vs veh, BIVM-ERCC5 /// ERCC5 / RFU, ILF3 / Fold change vs veh, ILF3 / RFU 11762660_at / Fold change /veh 11762660_at / RFU VCAN (11757783_s_at) / Fold change /veh VCAN (11757783_s_at) / RFU DDX43 (11728927_at) / Fold change /veh DDX43 (11728927_at) / RFU KRT8 (11758188_x_at) / Fold change /veh KRT8 (11758188_x_at) / RFU NKD1 (11759106_at) / Fold change /veh NKD1 (11759106_at) / RFU SRD5A1 (11742802_a_at) / Fold change /veh SRD5A1 (11742802_a_at) / RFU TPSAB1 /// TPSB2 (11721975_s_at) / Fold change /veh TPSAB1 /// TPSB2 (11721975_s_at) / RFU GSTM3 (11746129_a_at) / Fold change /veh GSTM3 (11746129_a_at) / RFU IL23R (11737362_x_at) / Fold change /veh IL23R (11737362_x_at) / RFU TMEM51 (11727254_a_at) / Fold change /veh TMEM51 (11727254_a_at) / RFU PIWIL2 (11732686_x_at) / Fold change /veh PIWIL2 (11732686_x_at) / RFU ORM1 (11744905_x_at) / Fold change /veh ORM1 (11744905_x_at) / RFU CCDC152 (11743942_at) / Fold change /veh CCDC152 (11743942_at) / RFU ECM1 (11717891_a_at) / Fold change /veh ECM1 (11717891_a_at) / RFU IL23R (11748794_a_at) / Fold change /veh IL23R (11748794_a_at) / RFU TNFAIP8L3 (11732012_x_at) / Fold change /veh TNFAIP8L3 (11732012_x_at) / RFU MBOAT4 (11741988_at) / Fold change /veh MBOAT4 (11741988_at) / RFU 11764193_at / Fold change /veh 11764193_at / RFU TMEM53 (11763286_at) / Fold change /veh TMEM53 (11763286_at) / RFU MAGEB2 (11727129_at) / Fold change /veh MAGEB2 (11727129_at) / RFU TMEM200A (11744735_a_at) / Fold change /veh TMEM200A (11744735_a_at) / RFU CCDC152 (11751479_a_at) / Fold change /veh CCDC152 (11751479_a_at) / RFU FAM211A (11726209_a_at) / Fold change /veh FAM211A (11726209_a_at) / RFU RGS16 (11746705_a_at) / Fold change /veh RGS16 (11746705_a_at) / RFU VCAN (11755009_s_at) / Fold change /veh VCAN (11755009_s_at) / RFU RHOB (11743442_s_at) / Fold change /veh RHOB (11743442_s_at) / RFU RGS16 (11720943_a_at) / Fold change /veh RGS16 (11720943_a_at) / RFU RGS16 (11720944_at) / Fold change /veh RGS16 (11720944_at) / RFU, VPS4B / Fold change vs veh, VPS4B / RFU, CREB1 / Fold change vs veh, CREB1 / RFU, DNAJC13 / Fold change vs veh, DNAJC13 / RFU, GNAQ / Fold change vs veh, GNAQ / RFU, CDK5R1 / Fold change vs veh, CDK5R1 / RFU, ZRANB3 / Fold change vs veh, ZRANB3 / RFU, CUL4A / Fold change vs veh, CUL4A / RFU, CCNY / Fold change vs veh, CCNY / RFU, UFL1 / Fold change vs veh, UFL1 / RFU, COG3 / Fold change vs veh, COG3 / RFU, DIAPH2 / Fold change vs veh, DIAPH2 / RFU, SKA2 / Fold change vs veh, SKA2 / RFU, AFF3 / Fold change vs veh, AFF3 / RFU, LMF1 / Fold change vs veh, LMF1 / RFU, IPO11 / Fold change vs veh, IPO11 / RFU, DFFB / Fold change vs veh, DFFB / RFU, FOXP1 / Fold change vs veh, FOXP1 / RFU, CARD8 / Fold change vs veh, CARD8 / RFU, STRN3 / Fold change vs veh, STRN3 / RFU, ADK / Fold change vs veh, ADK / RFU, RASSF2 / Fold change vs veh, RASSF2 / RFU, WIPF1 / Fold change vs veh, WIPF1 / RFU, LARP1B / Fold change vs veh, LARP1B / RFU, RASA1 / Fold change vs veh, RASA1 / RFU, RB1 / Fold change vs veh, RB1 / RFU, PPFIA1 / Fold change vs veh, PPFIA1 / RFU, MAT2A / Fold change vs veh, MAT2A / RFU, CCT5 / Fold change vs veh, CCT5 / RFU, WDR92 / Fold change vs veh, WDR92 / RFU, CUX1 / Fold change vs veh, CUX1 / RFU, TTC7A / Fold change vs veh, TTC7A / RFU, TMEM135 / Fold change vs veh, TMEM135 / RFU, DEPTOR / Fold change vs veh, DEPTOR / RFU, CPM / Fold change vs veh, CPM / RFU, DNAJB6 / Fold change vs veh, DNAJB6 / RFU, CACNA2D3 / Fold change vs veh, CACNA2D3 / RFU, DTX4 / Fold change vs veh, DTX4 / RFU, TFCP2 / Fold change vs veh, TFCP2 / RFU, GMCL1 /// GMCL1P1 / Fold change vs veh, GMCL1 /// GMCL1P1 / RFU, AEBP2 / Fold change vs veh, AEBP2 / RFU, SNHG1 /// SNORD22 /// SNORD25 /// SNORD26 /// SNORD27 /// SNORD28 /// SNORD29 /// SNORD31 / Fold change vs veh, SNHG1 /// SNORD22 /// SNORD25 /// SNORD26 /// SNORD27 /// SNORD28 /// SNORD29 /// SNORD31 / Fold change (Aza/veh), C12orf56 (ProbeSet 11735607_a_at) / Fold change (ACY-1035/veh), C12orf56 (ProbeSet 11735607_a_at) / Fold change (Aza/veh), FGFR1OP (ProbeSet 11751329_s_at) / Fold change (ACY-1035/veh), FGFR1OP (ProbeSet 11751329_s_at) / Fold change (Aza/veh), VPS36 (ProbeSet 11739960_a_at) / Fold change (ACY-1035/veh), VPS36 (ProbeSet 11739960_a_at) / RFU SYPL1 (11715823_x_at) / Fold change /veh SYPL1 (11715823_x_at) / RFU IGFBP7 (11715501_s_at) / Fold change /veh IGFBP7 (11715501_s_at) / RFU REEP3 (11722064_at) / Fold change /veh REEP3 (11722064_at) / RFU IGLL1 (11728026_x_at) / Fold change /veh IGLL1 (11728026_x_at): dose or concentration left out as unconfirmed
Conditions: ProbeSet 11743567_s_at; LIST B

Structure (SMILES): Nc1ccc(-c2cccs2)cc1NC(=O)c1ccc2c(c1)cc(C1CC1)n2CCN1CCOCC1 [ACY-1035]
- RFU, ACBD3: 241.56 RFU
